Assay results taken from US10772856B2, “Compositions and methods of use of beta-hydroxy-beta-methylbutyrate (HMB) for decreasing fat mass” (Metabolic Technologies, Inc., priority 2015, dated 2020).

What was measured:
OP9 adipocytes = assay: Basal and isoproterenol stimulated lipolysis in differentiated OP9 adipocytes; format: cell-based
Protocol: As noted above, an increase in expression of ATGL in cells treated with HMB was observed, so the effect of HMB treatment on basal and isoproterenol stimulated lipolysis was determined directly in cultured adipocytes. The protocol of Viswanadha and Londos was used for optimization of conditions for measuring lipolysis in murine primary adipoctyes (J. Lipid Res. 2006. 47: 1859-1864) that include treatment with adenosine deaminase (ADA) to remove endogenous adenosine and then addition of ADA resistant PIA (phenylisopropyl-adenosine).
The following treatment strategies were tested: HMB doses of 0.1, 1 and 6 mM; 2 concentrations of the beta-adrenergic agonist isoproterenol 0.1 and 1 uM, and short term (immediately before lipolysis assay) vs. long term (48 h) HMB treatment (n=4 per treatment). Op9 adipocytes were used as SGBS cells take a long time (several weeks) to differentiate making them inconvenient to use.
Cells were pre-treated with varying concentrations of HMB in OP9 growth medium for 48 hrs. Following pre-treatment, cells were washed and incubated with Isoproterenol (0.1 or 1.0 uM) in lipolysis buffer: Krebs ringer bicarbonate (KRB) with 4% BSA. The medium also contained adenosine deaminase (ADA) and phenyl-isopropyl-adenosine (PIA) for 2 hrs at 37° C. ADA was added to remove endogenous adenosine and PIA, which is resistant to ADA, was used to have low standardized basal lipolysis. Following treatment, media was assayed for glycerol content and cells were lysed with RIPA buffer to determine protein concentration, *p<0.05, ** p<0.01. N=4.

[1] = test system: Differentiated adipocytes; assay: Gene expression by qPCR in differentiated adipocytes; format: cell-based; settings: 1 mM HMB, 4 days
Protocol: Differentiated adipocytes were incubated for 4 days with 1 mM of HMB. RNA was extracted and gene expression was determined by qPCR. Gene expression for ATGL, ACOX, PGC1a, ATG7 and BNIP3 were analyzed. […] ATGL is highly expressed in adipose tissue of humans and mice. ACOX1, or acyl-CoA oxidase 1 is the first enzyme involved in peroxisomal fatty acid oxidation. This occurs when the fatty acid chains are too long to be handled by the mitochondria. The high-potential electrons generated are transferred to O2→H2O2 (+heat) which in the presence of catalase→H2O and O2. PGC1α is a key regulator of energy metabolism and is found to be very important in the development of brown adipose tissue which is the high energy yielding adipose tissue. Autophagy-related protein 7 (ATG7) regulates fat mass. Knocking ATG7 down will result in abnormal non-functional adipose tissue. Elevated levels increase tissue recycling. BNIP3 is another autophagy-related protein like ATG7 that appears to be significant. The gene expression results appear in FIG. 3.

[2] = test system: Human subcutaneous adipocytes; assay: Lipolysis (glycerol release) in human subcutaneous adipocytes; format: cell-based; settings: 1.0 μM isoproterenol, 2 hours
Protocol: (§1) Methods. Murine 3T3-F442A preadipocytes were grown until confluence. After confluence, 3T3-F442A cells were allowed to differentiate into adipocytes and become filled with triglycerides. Lipolysis was assessed as glycerol release from 3T3-F442A adipocytes in well plates. Adipocyte monolayers were incubated with Krebs-Ringer buffer containing Hepes (KRH), supplemented with 2% fatty acid-free BSA, 5 mM glucose, ADA and PIA. In addition, cells were treated with β-hydroxy-β-methylbutyrate (HMB) at either 0 (control), 0.1, 1, or 6 mM concentrations. Cells were incubated in the absence (Basal) or in the presence of 0.1 μM isoproterenol for 1 hour. Aliquots of the incubation medium were removed and frozen until glycerol determination. Glycerol was measured by a commercial enzymatic method. Data were presented as the fold increase over control. Results. […] Lipolysis in Human Subcutaneous Adipocytes Methods. Human subcutaneous adipocytes were obtained from donors and incubated in vitro. Lipolysis was assessed as glycerol release in well plates. Adipocyte were incubated with Krebs-Ringer buffer containing Hepes (KRH), supplemented with 4% fatty acid-free BSA, 5 mM glucose, ADA and PIA. […] Glycerol was measured by a commercial enzymatic method. […] Similarly, cytokine receptor interaction and calcium signaling pathways are also elevated as measured by mRNAs.

[3] = after HMB is fed; cited from earlier work
[4] = test system: Differentiated human adipocytes (SGBS); assay: Phosphokinase protein array of SGBS adipocytes; format: cell-based; settings: 1 mM HMB, 4 days, vs untreated cells
Protocol: This approach was used to determine in non-biased way changes in protein phosphorylation that are known to influence activity of important signaling proteins. Differentiated human adipocytes were treated for 4 days with or without HMB (1 mM). Shown are only the significant increases above untreated cells in phosphorylation of the listed protein at the indicated phosphorylation site(s).

[5] = test system: SGBS human pre-adipocytes differentiated into adipocytes; assay: Microarray (mRNA) pathway analysis in differentiated SGBS adipocytes; format: cell-based; settings: 1 mM HMB for 4 days
Protocol: as §1

3T3-F442A adipocytes = assay: Lipolysis (glycerol release) in 3T3-F442A adipocytes; format: cell-based, Murine; settings: 1 hour
Protocol: Methods. Murine 3T3-F442A preadipocytes were grown until confluence. After confluence, 3T3-F442A cells were allowed to differentiate into adipocytes and become filled with triglycerides. Lipolysis was assessed as glycerol release from 3T3-F442A adipocytes in well plates. Adipocyte monolayers were incubated with Krebs-Ringer buffer containing Hepes (KRH), supplemented with 2% fatty acid-free BSA, 5 mM glucose, ADA and PIA. In addition, cells were treated with β-hydroxy-β-methylbutyrate (HMB) at either 0 (control), 0.1, 1, or 6 mM concentrations. Cells were incubated in the absence (Basal) or in the presence of 0.1 μM isoproterenol for 1 hour. Aliquots of the incubation medium were removed and frozen until glycerol determination. Glycerol was measured by a commercial enzymatic method. Data were presented as the fold increase over control. Results. […] Lipolysis in Human Subcutaneous Adipocytes Methods. Human subcutaneous adipocytes were obtained from donors and incubated in vitro. Lipolysis was assessed as glycerol release in well plates. Adipocyte were incubated with Krebs-Ringer buffer containing Hepes (KRH), supplemented with 4% fatty acid-free BSA, 5 mM glucose, ADA and PIA. In addition, cells were treated with β-hydroxy-β-methylbutyrate (HMB) at either 0 (control), 0.1, or 1 mM concentrations in the presence of 1.0 μM isoproterenol for 2 hours. Aliquots of the incubation medium were removed and frozen until glycerol determination. Glycerol was measured by a commercial enzymatic method. Data were presented as the fold increase over control. Results. […] Effect of HMB on Gene Expression in Differentiated Adipocytes SGBS human pre-adipocytes were differentiated into adipocytes and treated with 1 mM HMB for 4 days. The human Simpson-Golabi-Behmel syndrome (SGBS) preadipocyte cell strain cells originate from an adipose tissue specimen of a patient with GSBS. Microarrays (mRNAs) were performed. […] Similarly, cytokine receptor interaction and calcium signaling pathways are also elevated as measured by mRNAs.

[6] = healthy young or old adults; cited from earlier work
[7] = after administration; cited from earlier work
skeletal muscle = settings: acute ingestion of 2.4 grams; cited from earlier work

## CC(C)NCC(O)c1ccc(O)c(O)c1 (centres unmarked) [isoproterenol, reference compound]
OP9 adipocytes; higher concentrations of isoproterenol (1.0 vs 0.1 uM)
  maximal lipolysis: reduced maximal lipolysis

## CC(C)(O)CC(=O)O [HMB, β-hydroxy-β-methylbutyric acid]
[1]
  expression of ATGL: increase
[2]; 0.1 mM HMB
  lipolysis (glycerol release, fold increase over control): increased lipolysis above that of control
[2]; 1 mM HMB
  lipolysis (glycerol release, fold increase over control): increased lipolysis above that of control
OP9 adipocytes; 0.1 mM HMB 48 h pre-treatment, 0.1 uM isoproterenol
  enhancement of lipolysis in response to isoproterenol: 2 fold
OP9 adipocytes; 1 mM HMB 48 h pre-treatment, 0.1 uM isoproterenol
  increase of lipolysis over no HMB: 4 fold
OP9 adipocytes; 6 mM HMB 48 h pre-treatment, 0.1 uM isoproterenol
  enhancement of lipolysis response to isoproterenol: 3 fold
OP9 adipocytes; HMB pretreatment, ADA followed by PIA, no isoproterenol
  increase of basal lipolysis: about 2 fold
OP9 adipocytes; pre-treatment with HMB for 48 h, all HMB doses
  enhancement of isoproterenol-stimulated lipolysis (glycerol): 2-4 fold
[3]
  loss of HMB to urine: 20-50%
[4]
  Fold Change with HMB, phosphorylation of CREB S133: 1.233 Fold
  Fold Change with HMB, phosphorylation of FGR Y412: 1.262 Fold
  Fold Change with HMB, phosphorylation of Fyn Y420: 1.400 Fold
  Fold Change with HMB, phosphorylation of GSK-3a/b S21/S9: 1.255 Fold
  Fold Change with HMB, phosphorylation of Lyn Y397: 1.335 Fold
  Fold Change with HMB, phosphorylation of P53 S46: 0.834 Fold
  Fold Change with HMB, phosphorylation of RSK1/2/3 S380/S386/S377: 0.732 Fold
  Fold Change with HMB, phosphorylation of STAT5a/b Y694/Y699: 0.804 Fold
  Fold Change with HMB, phosphorylation of Yes Y426: 1.224 Fold
  Fold Change with HMB, phosphorylation of p53 S15: 0.621 Fold
  change in AKT1/2/3 at Threonine 308: no change
[5]
  Effect on pathway: IL6 signaling (mRNA microarray): 2.53 fold
3T3-F442A adipocytes; 0.1 μM isoproterenol stimulation, 0.1 mM HMB
  lipolysis (glycerol release, fold increase over control): increased lipolysis
3T3-F442A adipocytes; 0.1 μM isoproterenol stimulation, 6.0 mM HMB
  lipolysis (glycerol release, fold increase over control): decreased lipolysis
3T3-F442A adipocytes; basal, 0.1 mM HMB
  lipolysis (glycerol release, fold increase over control): increased lipolysis above control
3T3-F442A adipocytes; basal, 1 mM HMB
  lipolysis (glycerol release, fold increase over control): increased lipolysis above control
3T3-F442A adipocytes; basal, 6.0 mM HMB
  lipolysis (glycerol release, fold increase over control): decreased lipolysis
[6]
  side effects: no side effects

## CC(C)(O)CC(=O)O [HMB-FA]
[7]
  plasma levels of HMB compared with calcium HMB: approximately double
  time to plasma levels compared with calcium HMB: about one-quarter the time
Skeletal muscle
  protein breakdown, change: −56%
  skeletal muscle protein synthesis, change: +70%
